Assay results as given in patent US8440677B2, “Atropisomers of 2-purinyl-3-tolyl-quinazolinone derivatives and methods of use” (Gilead Calistoga LLC, priority 2009, dated 2013).
Read-outs that look alike come from different tables or passages of the source.

Legend:
p110δ [1] = target: p110δ (Homo sapiens, UniProt O00329); test: In vitro activity against p110 isoforms, biochemical assays (FIG. 5A); conditions: versus p110alpha, p110beta, p110 gamma isoforms
From the text: (§1) The in vitro activity of 1 and atropisomers, 1(S) and 1(R), have similar profiles in various isoforms of p110 inhibition as shown in FIGS. 5A and 5B. […] Although their in vitro potency appears to be similar, there are surprising in vivo differences observed between 1(S) and 1(R) as discovered in pharmacokinetic studies, mainly relating to the increased exposure of 1(S) and decreased exposure of 1(R) in the subject.
Target sequence in this assay (P27986 whole entry partner, one chain of several, canonical isoform): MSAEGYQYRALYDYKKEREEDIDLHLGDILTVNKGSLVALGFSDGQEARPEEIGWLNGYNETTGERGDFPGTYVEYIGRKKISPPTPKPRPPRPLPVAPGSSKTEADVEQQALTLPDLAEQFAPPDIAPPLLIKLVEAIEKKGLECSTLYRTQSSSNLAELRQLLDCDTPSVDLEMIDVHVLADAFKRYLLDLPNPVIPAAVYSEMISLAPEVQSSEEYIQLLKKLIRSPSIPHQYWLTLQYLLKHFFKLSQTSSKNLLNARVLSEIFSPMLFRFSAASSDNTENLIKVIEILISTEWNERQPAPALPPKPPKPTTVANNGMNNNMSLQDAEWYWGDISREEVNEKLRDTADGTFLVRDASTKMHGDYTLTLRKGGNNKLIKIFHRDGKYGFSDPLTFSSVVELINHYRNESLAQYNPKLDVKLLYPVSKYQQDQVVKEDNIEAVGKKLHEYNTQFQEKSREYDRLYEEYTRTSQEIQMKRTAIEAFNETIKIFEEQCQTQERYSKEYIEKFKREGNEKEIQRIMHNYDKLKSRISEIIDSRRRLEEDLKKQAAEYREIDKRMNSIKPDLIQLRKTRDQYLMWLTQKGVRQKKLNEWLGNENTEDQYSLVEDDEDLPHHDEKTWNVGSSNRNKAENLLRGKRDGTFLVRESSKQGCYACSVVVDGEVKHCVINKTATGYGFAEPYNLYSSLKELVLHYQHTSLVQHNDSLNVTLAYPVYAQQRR

p110δ [2] = target: T1, p110δ (Homo sapiens, UniProt O00329); test: In vitro activity against p110 isoforms, cell-based assays (FIG. 5B); conditions: versus other p110 isoforms
T1 sequence (O00329 1-1044): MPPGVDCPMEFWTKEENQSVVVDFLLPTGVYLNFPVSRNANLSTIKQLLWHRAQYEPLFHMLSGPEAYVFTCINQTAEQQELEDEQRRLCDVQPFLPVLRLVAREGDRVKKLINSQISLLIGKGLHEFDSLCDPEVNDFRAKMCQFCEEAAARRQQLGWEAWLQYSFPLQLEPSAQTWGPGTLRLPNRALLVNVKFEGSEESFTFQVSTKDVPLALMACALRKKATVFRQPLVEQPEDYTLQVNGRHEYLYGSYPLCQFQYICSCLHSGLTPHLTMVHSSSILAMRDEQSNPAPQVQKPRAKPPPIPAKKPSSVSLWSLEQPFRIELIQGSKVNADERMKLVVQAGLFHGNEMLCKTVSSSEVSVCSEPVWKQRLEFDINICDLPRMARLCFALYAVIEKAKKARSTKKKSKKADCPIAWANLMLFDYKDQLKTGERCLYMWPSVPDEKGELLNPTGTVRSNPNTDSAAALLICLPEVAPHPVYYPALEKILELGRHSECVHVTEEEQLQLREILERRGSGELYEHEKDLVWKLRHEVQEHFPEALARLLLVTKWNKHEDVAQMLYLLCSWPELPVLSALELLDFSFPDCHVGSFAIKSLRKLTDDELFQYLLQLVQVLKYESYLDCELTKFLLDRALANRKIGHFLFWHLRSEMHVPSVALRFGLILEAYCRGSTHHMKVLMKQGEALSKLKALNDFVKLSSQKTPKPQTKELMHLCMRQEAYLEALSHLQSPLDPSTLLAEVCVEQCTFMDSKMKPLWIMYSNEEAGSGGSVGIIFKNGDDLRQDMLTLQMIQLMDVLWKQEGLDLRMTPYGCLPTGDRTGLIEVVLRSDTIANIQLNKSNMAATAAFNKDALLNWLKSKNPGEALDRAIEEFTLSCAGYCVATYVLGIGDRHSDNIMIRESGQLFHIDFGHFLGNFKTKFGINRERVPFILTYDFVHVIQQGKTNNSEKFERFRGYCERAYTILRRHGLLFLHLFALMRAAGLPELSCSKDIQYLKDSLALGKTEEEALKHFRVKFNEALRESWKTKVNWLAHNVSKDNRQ
From the text: as §1

[3] = human; for AUClast / Cmax / T½: 25 mg racemate daily for 7 days, 40 nCi labeled spike on day 4
in vivo = conditions: female, Sprague Dawley, rat, iv
[4] = Metabolites in human plasma; conditions: human subjects dosed with the substance
[5] = Metabolites in human urine by LC/MS/MS; conditions: humans
From the text: Urine was collected from humans dosed the racemic mixture and evaluated for possible metabolites using LC/MS/MS.

[6] = Solubility in a series of aqueous solvents (FIG. 4); assay type: physicochemical; conditions: variety of aqueous solutions
[7] = Plasma concentration of atropisomers in rats after oral dosing with racemic 1 (FIG. 6); assay type: in vivo; conditions: female rats, single 50 mg/kg oral dose of racemic 1, 8 hours after dosing
[8] = Plasma concentration of atropisomers in dogs after oral dosing with racemic 1 (FIG. 7); assay type: in vivo; conditions: female dogs, single 50 mg/kg oral dose of racemic 1
Procedure: The tagged racemic mixture or separated atropisomers were administered in rats, dogs, and human subjects through oral and i.v. routes. The compounds were dissolved in PEG 100 such that any difference in dissolution rates would not play a role in the pharmacokinetic profile of the compounds. […] After administration of the compound, blood plasma of the subjects were sampled over time and evaluated by analytical HPLC methods developed to identify and measure concentrations of compound 1(S) or 1(R) present in the sample. It was observed that the most abundant isomer measured in the plasma is compound 1(S), which accounts for 70-80% of exposure to the subject.
In approximately 1 hour after dosing the maximum concentration of compounds 1(S) and 1(R) is reached. At that point, the concentration of 1(R) is less than half the concentration of compound 1(S). […] These large differences in pharmacokinetic behavior were not predictable.

[9] = Interconversion of atropisomers in blood plasma; assay type: in vivo; conditions: within 4 hours after administration of the atropisomer
From the text: Another possible explanation for the difference in exposure is that 1(R) is interconverted to 1(S) over time. […] However, this small amount of conversion should only account for a fraction of the difference in exposure rates in vivo and other factors, such as selective elimination of 1(R), are likely to play the major role in the lowered exposure rate of 1(R).

[10] = Elimination in urine by LC-MS; assay type: in vivo; conditions: compared with 1(S)
[11] = Metabolic products in rat urine by LC-MS (FIG. 12); assay type: in vivo; conditions: rats, single 50 mg/kg oral dose of the atropisomer
Procedure: A single 50 mg/kg oral dose of either atropisomer 1(S) or 1(R) was administered to rat subjects. The rat urine was subsequently sampled and analyzed using LC-MS instrumentation.

[12] = human subjects
[13] = for plasma concentration at 24 hours: female rats, single dose 1.5 mg/kg
[14] = human subject, oral radiolabeled atropisomer; for metabolite formation in plasma, 72 hours: 72 hours after administration
clinical = conditions: human, plasma, po, 100 mg
[15] = Plasma concentration in rats after single oral dose of 1(S) or 1(R) (FIG. 9B); assay type: in vivo, rat; conditions: female rats, single oral dose 1.5 mg/kg, 12 hour time point
[16] = Plasma concentration in human subjects after a single oral dose of 100 mg or 10 mg (FIG. 10); assay type: in vivo
[17] = Human pharmacokinetics, racemic mixture versus 1(S) at 10 mg once daily; assay type: in vivo
Procedure: Human pharmacokinetic was obtained after both the racemic mixture and 1(S) were administered at 10 mg once daily. […] Since the dose is low and well absorbed, as evidenced by the determination of 100% bioavailability, it is likely that the 1(R) metabolism is greater. The greater extent and complexity of 1(R) metabolism was supported by studies on human and rat in vivo metabolism as well as in vitro studies of human liver microsomes and protein binding.

[18] = tested on: collagen induced arthritis (CIA) rats; test: Collagen induced arthritis (CIA) rats; assay type: in vivo, rat; conditions: compared to vehicle
[19] = compounds dissolved in PEG 100
[20] = single 100 mg oral dose of racemic 1
[21] = female SD rats, single bolus i.v.
[22] = 25 mg racemate daily, labeled spike on day 4, after day 1

Question: What does the source list for `Cc1ccccc1-n1c(Cn2cnc3c(N)ncnc32)nc2cccc(C)c2c1=O` (single isomer, unassigned) [Compound 1, 2-((6-amino-9H-purin-9-yl)methyl)-5-methyl-3-o-tolylquinazolin-4(3H)-one]?
Answer: p110δ inhibition in biochemical assays (p110δ [1]): selective p110δ inhibition; p110δ inhibition in cell-based assays (p110δ [2]): selective p110δ inhibition; AUClast [3]: 51,032 ± 22,383 neq*h/mL; Cmax [3]: 2780 ± 1163 neq/mL; T½ [3]: 69.9 ± 26.6 h; AUC (in vivo; in vivo, 3 mg/kg): 1970 ± 243 ng·h/mL; Vd (in vivo; in vivo, 3 mg/kg): 5.4 ± 1.57 L/kg; clearance (in vivo; in vivo, 3 mg/kg): 26 mL/min/kg; half-life (in vivo; in vivo, 3 mg/kg): 2.5 ± 0.7 h; number of metabolites observed in plasma ([4]; listed as racemic mixture): 2; number of metabolites confirmed in urine ([5]; authentic racemic standards, achiral method): 5; total number of metabolites observed in urine ([5]; counting atropisomers of metabolites): 9

Question: What does the source list for `Cc1ccccc1-n1c(Cn2cnc3c(N)ncnc32)nc2cccc(C)c2c1=O` (single isomer, unassigned) [Compound 1(R), 2-((6-amino-9H-purin-9-yl)methyl)-5-methyl-3-o-tolylquinazolin-4(3H)-one]?
Answer: p110δ inhibition in biochemical assays (p110δ [1]): selective p110δ inhibition; p110δ inhibition in cell-based assays (p110δ [2]): selective p110δ inhibition; solubility differences between 1(S) and 1(R) [6]: Modest solubility differences; average plasma concentration of 1(R) relative to 1(S) [7]: approximately one-fourth; plasma concentration of 1(R) relative to 1(S) at maximum concentration [8]: less than half; time to maximum plasma concentration [8]: approximately 1 hour; conversion to the other atropisomer in blood plasma [9]: approximately 14%; elimination in urine [10]: preferentially eliminated in urine; metabolic products found in urine [11]: more metabolic products; plasma concentration of 1(R) relative to 1(S) at maximum concentration [12, 20]: less than half; Vz of 1(R) relative to 1(S) or racemic mixture [13, 21]: about 2.6 times; half life of 1(R) relative to 1(S) or racemic mixture 1 [13, 21]: about 2.8 times; plasma concentration at 24 hours [13]: very low; AUClast [3]: 21676 neq*h/mL; Cmax [3]: 1946 neq/mL; concentration of 14C radiolabeled material in blood plasma ([3]; 25 mg racemate daily, labeled spike on day 4, 50 hours from dosing): 10-50 neq/mL; concentration of 1(R) relative to 1(S) [3, 22]: about one-fourth; concentration of 14C radiolabeled material in blood plasma [3, 22]: about 500 neq/mL; metabolite formation in plasma, 72 hours [14]: primarily the metabolites are detected; half-life (clinical; half-life, human subjects, single 100 mg oral dose of racemic 1): ~9 h

Question: Which results are given for `Cc1ccccc1-n1c(Cn2cnc3c(N)ncnc32)nc2cccc(C)c2c1=O` (single isomer, unassigned) [Compound 1(S), 2-((6-amino-9H-purin-9-yl)methyl)-5-methyl-3-o-tolylquinazolin-4(3H)-one]?
Answer: p110δ inhibition in biochemical assays (p110δ [1]): selective p110δ inhibition; p110δ inhibition in cell-based assays (p110δ [2]): selective p110δ inhibition; solubility differences between 1(S) and 1(R) [6]: Modest solubility differences; time to maximum plasma concentration [8]: approximately 1 hour; plasma concentration of 1(S) versus 1(R) [15]: greatly exceed; maximum plasma concentration of 1(S) relative to 1(R) ([16]; single oral dose of 10 mg): about double; maximum plasma concentration of 1(S) relative to 1(R) ([16]; single oral dose of 100 mg): over 2 times; conversion to the other atropisomer in blood plasma [9]: less than 1%; metabolic products found in urine [11]: mainly one compound; Cmax of 1(S) greater than racemic mixture [17]: 30%; increase of AUC0-24 of 1(S) over racemic mixture ([17]; Day 1): 2.4 fold; increase of AUC0-24 of 1(S) over racemic mixture ([17]; Day 7): 40%; anti-collagen antibody levels ([18]; FIG. 15): reduction of collagen antibody levels; X-ray score (radiographic assessment) ([18]; FIG. 16): reduction in the X-ray score; histopathology, dark areas of tissue images ([18]; similar to MTX, FIGS. 17A-D): reduced; arthritis score ([18]; versus days post compound dosing, FIG. 14): activity in reducing the severity of arthritis; share of exposure to the subject (most abundant isomer in plasma) [19]: 70-80%; half-life in humans (in words) ([12]; oral racemic 1, greater than in dogs): several days; share of the exposure at the maximum concentration point [12, 20]: approximately 70%; plasma concentration of 1(S) relative to 1(R) ([12]; single 100 mg oral dose of racemic 1, 72 hours post-dosing): over 10 times; plasma concentration at 24 hours [13]: very low; AUClast [3]: 90511 neq*h/mL; Cmax [3]: 3930 neq/mL; T½ [3]: 63.9 h; AUC of 1(S) relative to 1(R) ([3]; data of FIG. 11): over 4 times; Cmax of 1(S) relative to 1(R) ([3]; data of FIG. 11): twice; half-life of 1(S) relative to 1(R) ([3]; data of FIG. 11): 6 times; metabolite formation in plasma, 1 hour ([14]; 1 hour after administration): remains largely unmodified; metabolite formation in plasma, 72 hours [14]: still less than the amount of the parent compound; AUC (in vivo; plasma, 1.5 mg/kg): 865 ± 212 ng·h/mL; Vd (in vivo; plasma, 1.5 mg/kg): 5.77 ± 2.74 L/kg; clearance (in vivo; plasma, 1.5 mg/kg): 30.6 mL/min/kg; half-life (in vivo; plasma, 1.5 mg/kg): 2.5 ± 1.6 h; half-life (clinical): > 72 h; number of metabolites observed in plasma [4]: one
